From patent publication US9896481B2, “Modified mini-hepcidin peptides and methods of using thereof” (priority 2011, dated 2018) come the findings set out here.

Non-standard residues stand in square brackets, D forms with d. Residues, ends and D or L forms follow the SMILES beside them. No end group written: not given here. *: point of attachment. Ursodeoxycholyl = C[C@H](CCC(=O)*)[C@H]1CC[C@H]2[C@@H]3[C@@H](O)C[C@@H]4C[C@H](O)CC[C@]4(C)[C@H]3CC[C@]12C; TTDA(Palmitoyl) = CCCCCCCCCCCCCCCC(=O)NCCCOCCOCCOCCCN*; PEG12 = NCCOCCOCCOCCOCCOCCOCCOCCOCCOCCOCCOCCOCCC(=O)O; Dip = N[C@H](C(=O)O)C(c1ccccc1)c1ccccc1; Palmitoyl = CCCCCCCCCCCCCCCC(=O)*; β3hF = N[C@H](CC(=O)O)Cc1ccccc1; NMeD = CN[C@@H](CC(=O)O)C(=O)O; β3hP = O=C(O)C[C@@H]1CCCN1; AEEEA = NCCOCCOCCOCC(=O)O; Dap = NC[C@H](N)C(=O)O

For one assay, the system named is C57/Bl6J mice. Put plainly: Serum iron assay in mice on low-iron diet, 4 hours after peptide. The note with it: for active in vivo: asterisk at the EC50 value of Table 1. Type of assay: in vivo, mouse. Set-up: key to active in vivo: *active in vivo. As to the method:
The decrease in serum iron after peptide administration is the principal measure of hepcidin activity. Thus, as provided herein, the hepcidin activity of selected peptides of the present invention were assayed in vivo by measuring serum iron in test subjects. Briefly, C57/Bl6J mice were maintained on NIH 31 rodent diet (333 parts per million (ppm) iron; Harlan Teklad, Indianapolis, Ind.). Two weeks before the experiment, the mice were switched to a diet containing about 2-4 ppm iron (Harlan Teklad, Indianapolis, Ind.) in order to suppress endogenous hepcidin. Peptide stocks were diluted to desired concentrations in sterile phosphate buffered saline (PBS) or other diluents as described next. Mice were subjected to the following treatments: (a) Injected intraperitoneally either with 100 μl PBS (control) or with 50 μg peptide in 100 μl PBS; (b) Injected with 100 μl of peptide (or PBS) mixed with 500 μg empty liposomes COATSOME EL series (NOF, Tokyo, Japan) (prepared as per manufacturer's recommendation); (c) Injected with 100 μl peptides (or PBS) solubilized with SL220 solubilization agent (NOF, Tokyo, Japan); (d) Gavaged with 250 μl of peptide (or PBS) in 1× solvent (Cremophor EL (Sigma)/ethanol/PBS; (12.5:12.5:75)). Mice were sacrificed 4 hours later, blood was collected by cardiac puncture, and serum was separated using MICROTAINER tubes (Becton Dickinson, Franklin Lakes, N.J.). Serum iron was determined by using a colorimetric assay (Diagnostic Chemicals, Oxford, Conn.), which was modified for the microplate format so that 10 μl serum was used per measurement. The results were expressed as the percentage of decrease in serum iron when compared with the average value of serum iron levels in PBS-treated mice.

The target in assay [1] is T1, ferroportin tagged at the C-terminus with green fluorescent protein (Fpn-GFP) (Mus musculus, UniProt Q9JHI9).
T1 construct: expressed in transfected cells; host or cells: ECR293/Fpn-GFP (stably transfected, ponasterone-inducible)
T1 sequence (Q9JHI9 1-570): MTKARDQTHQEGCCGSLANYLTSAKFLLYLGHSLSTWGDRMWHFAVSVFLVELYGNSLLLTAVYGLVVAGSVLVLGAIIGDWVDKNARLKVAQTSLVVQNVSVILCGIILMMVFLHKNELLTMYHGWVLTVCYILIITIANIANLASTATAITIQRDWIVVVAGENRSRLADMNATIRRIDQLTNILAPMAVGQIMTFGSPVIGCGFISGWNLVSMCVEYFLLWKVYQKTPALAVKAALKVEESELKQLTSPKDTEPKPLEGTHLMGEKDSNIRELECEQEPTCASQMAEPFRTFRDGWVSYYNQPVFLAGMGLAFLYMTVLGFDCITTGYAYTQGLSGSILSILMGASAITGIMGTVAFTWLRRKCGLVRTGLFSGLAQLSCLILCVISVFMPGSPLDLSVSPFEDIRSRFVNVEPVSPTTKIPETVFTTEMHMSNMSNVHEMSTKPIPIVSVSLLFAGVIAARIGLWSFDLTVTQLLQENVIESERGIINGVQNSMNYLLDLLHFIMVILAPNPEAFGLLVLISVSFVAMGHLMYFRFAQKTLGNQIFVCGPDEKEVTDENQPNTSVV
Put plainly: Flow cytometry of ferroportin-GFP degradation in ECR293/Fpn-GFP cells. Type of assay: cell-based. The note with it: for hepcidin activity relative to Hep25 (in words): FIGS. 1-4. As to the method:
In vitro activity may be measured by the dose-dependent loss of fluorescence of cells engineered to display ferroportin fused to green fluorescent protein as in Nemeth et al. (2006) Blood 107:328-33. Aliquots of cells are incubated for 24 hours with graded concentrations of a reference preparation of Hep25 or a mini-hepcidin. As provided herein, the EC50 values are provided as the concentration of a given compound (e.g. peptide) that elicits 50% of the maximal loss of fluorescence generated by the reference Hep25 preparation.
Mutational studies indicate that C326, the cysteine residue at position 326 of human ferroportin, is the critical residue involved in binding hepcidin. Thus, various N-terminal fragments of Hep25 containing a thiol, i.e. Hep 4-7, Hep3-7, Hep3-8, Hep3-9, Hep1-7, Hep1-8, Hep1-9, and Hep1-10 C7A, were chemically synthesized, refolded and their activities relative to Hep25 were assayed using flow-cytometric quantitation of the ferroportin-GFP degradation, iron efflux estimation based on measurements of cellular ferritin, and radioisotopic iron efflux studies.
The activity of peptides of the present invention was measured by flow cytometry as previously described. See Nemeth et al. (2006) Blood 107:328-333, which is herein incorporated by reference. ECR293/Fpn-GFP, a cell line stably transfected with a ponasterone-inducible ferroportin construct tagged at the C-terminus with green fluorescent protein was used. See Nemeth et al. (2004) Science 306:2090-2093, which is herein incorporated by reference. Briefly, the cells were plated on poly-D-lysine coated plates in the presence of 20 μM FAC, with or without 10 μM ponasterone. After 24 hours, ponasterone was washed off, and cells were treated with peptides for 24 hours. Cells were then trypsinized and resuspended at 1×10^6 cells/ml, and the intensity of green fluorescence was analyzed by flow cytometry. Flow cytometry was performed on FAC SCAN (fluorescence activated cell scanner) Analytic Flow Cytometer (Becton Dickinson, San Jose, Calif.) with […] version 3.3 software (Becton Dickinson). Cells not induced with ponasterone to express Fpn-GFP were used to establish a gate to exclude background fluorescence. Cells induced with ponasterone, but not treated with any peptides, were used as the positive control. Each peptide was tested over the range of concentrations (0, 0.01, 0.03, 0.1, 0.3, 1, 3 and 10 μM). Each peptide treatment was repeated independently 3 to 6 times. For each concentration of peptide, the results were expressed as a fraction of the maximal activity (FHep25) of Hep25 (in the dose range 0.01-10 μM), according to the formula 1−((Fx−FHep25)/(Funtreated−FHep25)), where F was the mean of the gated green fluorescence and x was the peptide.

In a further assay the test system is mouse. As to the kind of experiment: Activity at 20 nmoles/mouse: serum iron 4 hours after injection versus solvent (Tables 3 and 4). The assay is classed as in vivo. Set-up: key: Y: “Active” means that at 4 hours after injection serum iron in peptide-injected mice decreased statistically significantly (p < 0.05) compared to solvent-injected mice; Y*: Exhibits detectable and reproducible activity at about 50% lower than the most active compounds in Table 3 and 4. The note with it: Table 3, intraperitoneal.

[2] abbreviates: ferroportin-GFP internalization, FIG. 3.

As to `CC[C@H](C)[C@H](NC(=O)[C@H](CS)NC(=O)[C@@H](NC(=O)[C@@H]1CCCN1C(=O)[C@H](Cc1ccccc1)NC(=O)[C@H](Cc1c[nH]cn1)NC(=O)[C@@H](NC(=O)[C@@H](N)CC(=O)O)[C@@H](C)O)[C@@H](C)CC)C(=O)N[C@@H](Cc1ccccc1)C(N)=O` [Hep9], the serum iron result in the assay with C57/Bl6J mice (50 μg per mouse i.p. in PBS, after 4 hours) is given as “did not result in a serum iron decrease”. Consider `CC[C@@H](C)[C@@H](NC(=O)[C@@H](Cc1ccccc1)NC(=O)CCOCCOCCOCCOCCOCCOCCOCCOCCOCCOCCOCCOCCNC(=O)[C@@H](CC(=O)O)NC(=O)CC[C@@H](C)[C@H]1CC[C@H]2[C@@H]3[C@@H](O)C[C@@H]4C[C@H](O)CC[C@]4(C)[C@H]3CC[C@]12C)C(=O)N[C@H](CS)C(=O)N[C@@H](C(=O)N1CCC[C@@H]1C(=O)N[C@H](Cc1ccccc1)C(=O)N[C@H](Cc1c[nH]cn1)C(=O)N[C@@H](C(=O)N[C@H](CC(=O)O)C(N)=O)[C@H](C)O)[C@H](C)CC` [PR24] (Ursodeoxycholyl-[dD][PEG12][dF][dI][dC][dI][dP][dF][dH][dT][dD]-NH2), for which the active in vivo entry in the assay with C57/Bl6J mice is reported as “*”. The EC50 is the concentration that produces a half-maximal response. `CCCCCCCCCCCCCCCC(=O)NCCOCCOCCOCCOCCOCCOCCOCCOCCOCCOCCOCCOCCC(=O)N[C@H](Cc1ccccc1)C(=O)N[C@@H](C(=O)N[C@H](CS)C(=O)N[C@@H](C(=O)N1CCC[C@@H]1C(=O)N[C@H](Cc1ccccc1)C(=O)N[C@H](Cc1c[nH]cn1)C(=O)N[C@@H](C(=O)N[C@H](CC(=O)O)C(N)=O)[C@H](C)O)[C@H](C)CC)[C@H](C)CC` [PR27]: the EC50 in assay [1] (Table 1, 24 h peptide treatment, 50% of maximal loss of fluorescence by Hep25, read-out: EC50) worked out at 20 nM. For the same molecule, the serum iron entry is listed as “comparable to that caused by i.p. administration of 20 nmoles Hep25” in the assay on C57/Bl6J mice (20 nmoles i.p. in PBS), “even greater decrease” with C57/Bl6J mice (200 nmoles i.p. in PBS) and “caused a decrease in serum iron” in the assay with C57/Bl6J mice (200 nmoles oral by gavage in Cremophor EL solution). The active in vivo entry in the assay on C57/Bl6J mice was “*”. As to `CCCCCCCCCCCCCCCC(=O)NC[C@H](NC(=O)CCCCCCCCCCCCCCC)C(=O)NCCOCCOCCOCCOCCOCCOCCOCCOCCOCCOCCOCCOCCC(=O)N[C@H](Cc1ccccc1)C(=O)N[C@@H](C(=O)N[C@H](CS)C(=O)N[C@@H](C(=O)N1CCC[C@@H]1C(=O)N[C@H](Cc1ccccc1)C(=O)N[C@H](Cc1c[nH]cn1)C(=O)N[C@@H](C(=O)N[C@H](CC(=O)O)C(N)=O)[C@H](C)O)[C@H](C)CC)[C@H](C)CC` [PR28] (Palmitoyl-[Dap](Palmitoyl)[PEG12][dF][dI][dC][dI][dP][dF][dH][dT][dD]-NH2), in the assay on C57/Bl6J mice (20 nmoles i.p. in liposomal solution), the serum iron result is “lesser ability to decrease serum iron than PR27”.

For `CCCCCCCCCCCCCCCC(=O)NCCCOCCOCCOCCCNC(=O)COCCOCCOCCNC(=O)C[C@H](Cc1ccccc1)NC(=O)[C@H](CCCNC(=N)N)NC(=O)[C@H](CS)NC(=O)[C@H](CCCNC(=N)N)NC(=O)C[C@@H]1CCCN1C(=O)[C@@H](NC(=O)[C@H](Cc1c[nH]cn1)NC(=O)[C@@H](NC(=O)[C@H](CC(=O)O)NC)[C@@H](C)O)C(c1ccccc1)c1ccccc1` [PR57] (H-[NMeD]TH[Dip][β3hP]RCR[β3hF][AEEEA]-{TTDA(Palmitoyl)}; N-terminus and C-terminus assumed), the “Active @ 20 nmoles/mouse IP” value with mouse is listed as “Y”. Still for that read-out and setting: for `CCCCCCCCCCCCCCCC(=O)NCCCOCCOCCOCCCNC(=O)COCCOCCOCCNC(=O)[C@H](Cc1ccccc1)NC(=O)C1(NC(=O)[C@H](CS)NC(=O)C2(NC(=O)[C@@H]3CCCN3C(=O)[C@@H](NC(=O)[C@H](Cc3c[nH]cn3)NC(=O)[C@@H](NC(=O)CNCC(=O)O)[C@@H](C)O)C(c3ccccc3)c3ccccc3)CCCCC2)CCCCC1` [PR60] the value was “Y*”. Take DTHFPIAIFC-NH2 [Hep10]: the “hepcidin activity relative to Hep25 (in words)” value in assay [1] is on record as “quite active”. For the same molecule, in assay [1] (setting [2]), the “potency relative to Hep25 on a mass basis, times less potent” value is “about 4 times” and the “potency relative to Hep25 on a molar basis, times less potent” value was “about 10 times”. Regarding “T2A: Hep25 with alanine substitution T2A (DAHFPICIFCCGCCHRSKCGMCCKT; disulfide (positions not given here); not fully specified (C-terminus); also: four disulfide bonds, pairing not given here; UniProt P81172 60-84, looked up, variant T2A)”, the “hepcidin activity relative to Hep25 (in words)” value in assay [1] is “did not substantially impact hepcidin activity”.
